According to patent publication US20160159861A1, “APJ Receptor Compounds” (priority 2013, published 2016):
Like-named read-outs stand apart in the source and are kept apart here. Peptide text beside a SMILES is read from it.

Legend:
[1] = molecular target: T1, human APJ receptor (hAPJ) (Homo sapiens, UniProt P35414); experiment: HTRF cAMP assay: inhibition of NKH477-stimulated cAMP in HEK cells stably expressing hAPJ; type: cell-based; details: for % IA (cAMP inhibition, hAPJ HEK): intrinsic activity; for Ranking: composite class of EC50 (hAPJ), % IA and % histamine or formal (+) charge; for Emax: HEK293, read-out: % IA, bound stated
T1 construct: expressed in transfected cells
T1 sequence (P35414 1-380): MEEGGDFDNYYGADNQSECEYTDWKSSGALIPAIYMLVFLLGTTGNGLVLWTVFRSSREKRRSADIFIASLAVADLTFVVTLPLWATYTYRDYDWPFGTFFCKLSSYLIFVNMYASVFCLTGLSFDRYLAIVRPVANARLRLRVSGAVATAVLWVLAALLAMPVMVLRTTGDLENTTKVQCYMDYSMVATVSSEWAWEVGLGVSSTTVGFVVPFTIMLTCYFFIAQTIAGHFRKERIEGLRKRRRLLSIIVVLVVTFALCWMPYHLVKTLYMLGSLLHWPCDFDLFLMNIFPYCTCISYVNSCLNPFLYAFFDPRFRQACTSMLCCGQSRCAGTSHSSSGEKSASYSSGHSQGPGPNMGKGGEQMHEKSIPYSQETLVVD
From the text: HTRF cAMP Assay and IP-One Assay (Cisbio)
HTRF (homogeneous time resolved fluorescence) is a technology developed by Cisbio Bioassays based on TR-FRET (time-resolved fluorescence resonance energy transfer). Cisbio Bioassays has developed a wide selection of HTRF-based assays compatible with whole cells, thereby enabling functional assays to run under more physiological conditions. The IP-One assays are competitive immunoassays using cryptate-labeled anti-IP1 monoclonal antibody and d2-labeled IP1. IP1 is a relatively stable downstream metabolite of IP3, and accumulates in cells following Gq receptor activation.
cAMP kits based on a competitive immunoassay using cryptate-labeled anti-cAMP antibody and d2-labeled cAMP were used to assay the effects of APJ compounds of the present invention. […] Cells are treated with 1 nG/mL doxycycline and seeded in all white 96 well plates @40 k/well overnight.

rat peritoneal cells = experiment: Ex vivo histamine release assay in rat peritoneal cells (vs. Compound 48/80); type: cell-based
From the text: More desirable pharmacological tolerability can include a decrease in an undesirable side effect (e.g., histamine release, an indicator of mast cell degranulation) without a significant loss in activity of the compound.
Screening of the variant G protein receptor compounds against a control compound for histamine release can be done following standard assays. The standard assay can include comparison to a control compound known to elicit a histamine response (e.g., 48/80 having CAS No. 94724-12-6). Such an assay using rat peritoneal cells is described herein for the APJ compounds.
Test compounds were assayed in the ex vivo histamine release assay using a 3-point dose response. Concentrations of total histamine contained in the cells is used to correct for variability in the numbers of mast cells in the lavage per well.
Resident peritoneal cells were harvested from naïve Sprague Dawley rats (male 200-300 gr, Charles River). Rats were euthanized by CO2 asphyxiation and a skin incision was made along the middle-line of the abdomen. Thirty milliliters of HBSS (HyClone, cat#SH 30268.01) containing 20 mM HEPES and 0.2% BSA (heretofore Assay Buffer) were injected intraperitoneally using a 30 mL syringe with the attached 18 gauge needle. The abdomen was gently lavaged for 1-2 min and 7-10 milliliters of the peritoneal lavage were carefully aspirated. Cell count in the peritoneal lavage was determined using Cellometer Auto T4 (Nexcelom Bioscience). The peritoneal cell count was adjusted to […] cells/mL in Assay Buffer. Rat peritoneal cells were kept at room temperature before and during the assay.
For the 10-point assay, 3-fold serial dilutions were prepared for each test compound in 100% DMSO in 96-well plates (Greiner Bio One, Ref#651261)—from 100 μM down to […]. For the 3-point assay, 10-fold serial dilutions were prepared in 100% DMSO at 100 μM, 10 μM and 1 μM concentrations. From this plate, 5 μL of compound were transferred to a new plate containing 45 μL Assay Buffer to generate a compound plate with 10× final concentrations in 10% DMSO with Assay Buffer. In the final plates, column 11 contained 1% DMSO for the low-histamine-releasing control.
Suspensions of the rat peritoneal cells (90 μL of 2.75×10^5 cells/mL; →25,000 cells per well) were introduced into each well of a new 96-well microtiter plate (Greiner Bio One, Ref#651261) and 10 μL aliquots of the serially diluted compounds were transferred to the cells in each well. The microtiter plate was incubated for 30 min at room temperature. Following incubation cells were spun down (500 rpm, 7 min) and supernatants were collected for further analysis. Supernatants were diluted 6 times with the assay buffer (15 μL to 75 μL, for 90 μL total) and released histamine content was determined using HTRF® Histamine assay kit (CisBio, cat#62HTMPEB). To measure the total histamine in each well, cells were lysed by addition of 15 μL 5% TritonX-100 to each well followed by incubation for 15 minutes. The plates were then spun at 3000 rpm for 5 minutes, and 10 μL of supernatant were diluted 9-fold in assay buffer (10 μL to 80 μL for 90 μL total) to make the “total” histamine plate. Histamine content was measured as described above for the “released” histamine values.
The standard positive control was Compound 48/80 (Enzo Life Sciences), a oligomeric polymer mixture produced by the condensation of N-methyl-p-methoxyphenethylamine with formaldehyde. The trimer is the most abundant in the mixture Compound 48/80 is used to promote mast cell degranulation and activates G proteins by a mechanism analogous to that of mastoparan. […] See references: T. Higashijima et al., J. Biol., Chem., 265 14176 (1990); M. Mousli et al., FEBS Lett., 259 260 (1990); K. Gietzen et al., Biochim. Biophys. Acta, 736 109 (1983); K. Gietzen, Biochem. J., 1983 216 611 and C. Bronner et al., Biochim. Biophys. Acta, 920 301(1987).

[2] = HTRF cAMP Assay, per data of Table 6
[3] = HTRF cAMP Assay, per data of Table 6, read-out: EC50 (hAPJ), inhibition of cAMP production, bound stated
[4] = Table 6, hAPJ HEK cells, NKH477-stimulated cAMP, read-out: EC50 (cAMP inhibition, hAPJ HEK)

Structure (SMILES)	% IA (cAMP inhibition, hAPJ HEK) ([1]; Table 6, hAPJ HEK cells)	Histamine (% vs. 48/80) (rat peritoneal cells)	Emax [1, 2]	EC50 [1, 3]	EC50 [1, 4]	Ranking [1]	EC50 ([1]; EC50 (cAMP inhibition, hAPJ HEK), Table 6, hAPJ HEK cells, NKH477-stimulated cAMP)	Histamine (% vs. 48/80) (rat peritoneal cells; histamine release from rat peritoneal cells relative to Compound 48/80)
CCCCCCCCCCCCCCCC(=O)N1CCC[C@H]1C(=O)N[C@@H](CCCCNC(=O)[C@@H]1CCCN1C(=O)[C@H](Cc1ccccc1)NC(=O)[C@@H](NC(=O)[C@H](CC(=O)O)NC(=O)[C@H](C)NC(=O)[C@H](CO)NC(=O)[C@H](CCCNC(=N)N)NC(=O)[C@H](CCCNC(=N)N)NC(=O)[C@@H](CCCCN)NC(=O)[C@@H]1CCCN1C(C)=O)[C@@H](C)CC)C(=O)N[C@@H](CCCNC(=N)N)C(=O)N[C@@H](CCCNC(=N)N)C(=O)N[C@@H](CO)C(=O)N[C@@H](C)C(=O)N[C@@H](CC(=O)O)C(=O)N[C@H](C(=O)N[C@@H](Cc1ccccc1)C(=O)N1CCC[C@H]1C(N)=O)[C@@H](C)CC [Compound 9] (HELM PEPTIDE1{[CCCCCCCCCCCCCCCC(=O)[*:2]].P.K.R.R.S.A.D.I.F.P.[am]}|PEPTIDE2{[ac].P.[dK].R.R.S.A.D.I.F.P}$PEPTIDE1,PEPTIDE2,3:R3-11:R2$$$V2.0)	84%	65%				** (EC50 25-50 nM (hAPJ), % IA 50-79% and either % histamine>35% or formal (+) charge>1)		
CCCCCCCCCCCCCCCC(=O)N[C@H](C(=O)N[C@H](C(=O)N[C@@H](Cc1ccccc1)C(=O)N[C@@H](CCCNC(=N)N)C(=O)N[C@@H](CO)C(=O)N[C@@H](CO)C(=O)N[C@@H](CCC(=O)O)C(=O)N[C@H](C)C(=O)N[C@@H](CCCNC(=N)N)C(=O)N[C@@H](CCCNC(=N)N)C(=O)N[C@@H](CO)C(=O)N[C@@H](C)C(=O)N[C@@H](CC(=O)O)C(=O)N[C@H](C(=O)N[C@@H](Cc1ccccc1)C(=O)N[C@H](C(N)=O)[C@@H](C)CC)[C@@H](C)CC)C(C)C)[C@@H](C)O [Compound 10] (HELM PEPTIDE1{[CCCCCCCCCCCCCCCC(=O)[*:2]].T.V.F.R.S.S.E.[dA].R.R.S.A.D.I.F.I.[am]}$$$$V2.0)	106%					** (EC50 25-50 nM (hAPJ), % IA 50-79% and either % histamine>35% or formal (+) charge>1)	39 nM	3%
CCCCCCCCCCCCCCCC(=O)N[C@H](C(=O)N[C@H](C(=O)N[C@@H](CC(=O)O)C(=O)N[C@@H](CCCNC(=N)N)C(=O)N[C@@H](CO)C(=O)N[C@@H](CO)C(=O)N[C@@H](CCC(=O)O)C(=O)N[C@H](CCCCN)C(=O)N[C@@H](CCCNC(=N)N)C(=O)N[C@@H](CCCNC(=N)N)C(=O)N[C@@H](CO)C(=O)N[C@@H](C)C(=O)N[C@@H](CC(=O)O)C(=O)N[C@@H](Cc1ccc(F)cc1)C(=O)N[C@@H](Cc1ccccc1)C(=O)N[C@H](C(N)=O)[C@@H](C)CC)C(C)C)[C@@H](C)O [Compound 33, TVDRSSEkRRSAD(p-fluoro-Phe)FI] (HELM PEPTIDE1{[CCCCCCCCCCCCCCCC(=O)[*:2]].T.V.D.R.S.S.E.[dK].R.R.S.A.D.[O=C([C@H](Cc1ccc(F)cc1)N[*:1])[*:2]].F.I.[am]}$$$$V2.0)	80%		50 to 79%	25 to 50 nM	30 nM	*** (EC50 25-50 nM (hAPJ), % IA 50-79% and either % histamine≦35% or formal (+) charge≦1)		

Second part, led by results:

% IA (cAMP inhibition, hAPJ HEK) ([1]; Table 6, hAPJ HEK cells)	Histamine (% vs. 48/80) (rat peritoneal cells)	Emax [1, 2]	EC50 [1, 3]	EC50 [1, 4]	Structure (SMILES)	Ranking [1]	EC50 ([1]; EC50 (cAMP inhibition, hAPJ HEK), Table 6, hAPJ HEK cells, NKH477-stimulated cAMP)	Histamine (% vs. 48/80) (rat peritoneal cells; histamine release from rat peritoneal cells relative to Compound 48/80)
78%	21%	50 to 79%	25 to 50 nM	10 nM	CCCCCCCCCCCCCCCC(=O)N[C@H](C(=O)N[C@H](C(=O)N[C@@H](Cc1ccccc1)C(=O)N[C@@H](CCC(N)=O)C(=O)N[C@@H](CO)C(=O)N[C@@H](CCC(=O)O)C(=O)N[C@H](CCCCN)C(=O)N[C@@H](CCCNC(=N)N)C(=O)N[C@@H](CCCNC(=N)N)C(=O)N[C@@H](CO)C(=O)N[C@@H](C)C(=O)N[C@@H](CC(=O)O)C(=O)N[C@@H](Cc1ccccc1)C(=O)N[C@H](C(N)=O)[C@@H](C)CC)C(C)C)[C@@H](C)O [Compound 16, TVFQSEkRRSADFI] (HELM PEPTIDE1{[CCCCCCCCCCCCCCCC(=O)[*:2]].T.V.F.Q.S.E.[dK].R.R.S.A.D.F.I.[am]}$$$$V2.0)	*** (EC50 25-50 nM (hAPJ), % IA 50-79% and either % histamine≦35% or formal (+) charge≦1)		
84%					CCCCCCCCCCCCCCCC(=O)N[C@H](C(=O)N[C@H](C(=O)N[C@@H](Cc1ccccc1)C(=O)N(C)[C@@H](CCCNC(=N)N)C(=O)N[C@@H](CO)C(=O)N[C@@H](CO)C(=O)N[C@@H](CCC(=O)O)C(=O)N[C@H](CCCCN)C(=O)N[C@@H](CCCNC(=N)N)C(=O)N[C@@H](CCCNC(=N)N)C(=O)N[C@@H](CO)C(=O)N[C@@H](C)C(=O)N[C@@H](CC(=O)O)C(=O)N[C@H](C(=O)N[C@@H](Cc1ccccc1)C(=O)N[C@H](C(N)=O)[C@@H](C)CC)[C@@H](C)CC)C(C)C)[C@@H](C)O [Compound 31] (HELM PEPTIDE1{[CCCCCCCCCCCCCCCC(=O)[*:2]].T.V.F.[meR].S.S.E.[dK].R.R.S.A.D.I.F.I.[am]}$$$$V2.0)	** (EC50 25-50 nM (hAPJ), % IA 50-79% and either % histamine>35% or formal (+) charge>1)		
67%		50 to 79%	25 to 50 nM	5 nM	CCCCCCCCCCCCCCCC(=O)N[C@@H](CC(=O)O)C(=O)N[C@H](C(=O)N[C@@H](Cc1ccccc1)C(=O)N[C@@H](CC(N)=O)C(=O)N[C@@H](CO)C(=O)N[C@@H](CO)C(=O)N[C@@H](CCC(=O)O)C(=O)N[C@H](CCCCN)C(=O)N[C@@H](CCCNC(=N)N)C(=O)N[C@@H](CCCNC(=N)N)C(=O)N[C@@H](CO)C(=O)N[C@@H](C)C(=O)N[C@@H](CC(=O)O)C(=O)N[C@@H](CC(N)=O)C(=O)N[C@@H](Cc1ccccc1)C(=O)N[C@H](C(N)=O)[C@@H](C)CC)C(C)C [Compound 19] (HELM PEPTIDE1{[CCCCCCCCCCCCCCCC(=O)[*:2]].D.V.F.N.S.S.E.[dK].R.R.S.A.D.N.F.I.[am]}$$$$V2.0)	*** (EC50 25-50 nM (hAPJ), % IA 50-79% and either % histamine≦35% or formal (+) charge≦1)		
